# Source: patent US20090156657A1, “ANTI-INFLAMMATORY COMPOSITION” (Ajinomoto Co., Inc., priority 2006, published 2009)
# Legend:
# [1] = test system: IBD model mice (IL-10 deficient cell-transplanted SCID mice); details: Ikenoue et al. 2005; cited from earlier work
# VCAM-1 mRNA = VCAM-1 mRNA expression in HAEC by real-time PCR; type: cell-based, human; details: 10 μM 24 h, 25 mM glucose 3 h, GAPDH internal standard, FIG. 3A
# Description: (§1) HAEC cells pre-treated with 10 μM of CS or FS for 24 hours were stimulated with 25 mM glucose for 3 hours, and total RNA was extracted with Isogenkit (NIPPON GENE CO., LTD.). From 1 μg of RNA, cDNA was synthesized using 100 U/mL of reverse transcriptase (TAKARA BIO INC.) and 0.1 μM of oligo (dT)-adapter (TAKARA BIO INC.) (total volume of reaction mixture; 50 μL) (42° C., 40 minutes). Real-time PCR was performed using 7300 Real Time PCR system (Applied Biosystems Japan Ltd.) and the PCR product was detected by SYBER Green I.
# (§2) PCR reaction composition (RT-PCRkit, TAKARA BIO INC.): 12.5 μL Premix Ex Taq, 2.5 μL SYBER Green I, synthesis primer, ROX reference dye, cDNA (corresponding to 20 ng of total RNA), final reaction volume; 25 μL
# (§3) Primers having the following sequences were used.
# (§4) PCR was conducted under the following conditions.
# (§5) thermal denaturation: at 95° C. for 15 seconds, extension reaction: 40 cycles (3 seconds at 95° C., 31 seconds at 60° C.)
# (§6) Expression amounts of VCAM-1 and MCP-1 mRNA were calculated using GAPDH as the internal standard.
# MCP-1 = MCP-1 secretion into medium of HAEC (immunoassay); type: cell-based, human; details: 0.1-10 μM 24 h, 25 mM glucose 4 h, FIG. 4B
# Description: (§7) HAEC cells proliferated to confluence in a 96 well microplate were pre-incubated with 0.1-10 μM serotonin derivative for 24 hours, and stimulated with 25 mM glucose for 4 hours. The cell layer was washed with Hanks solution, and then anti-VCAM-1 monoclonal antibody (Becton Dickinson) was added and the cells were incubated at 37° C. for 1 hour. After washing, the cells were incubated with secondary antibody (peroxidase-labeled anti-mouse IgG goat F(ab′)2 fragment; Cappel) for 1 hour. A color development substrate (o-phenylenediamine dihydrochloride) was added and, about 30 minutes later (room temperature), the absorbance (492 nm) of each well was quantified with a microplate reader. The MCP-1 concentration of the medium was quantified with Human MCP-1 Immunoassay Kit (BioSource International).
# [2] = test system: TNF-α, IL-1α, IL-1β and IL-6 production; details: human peripheral blood monocyte stimulated by LPS; cited from earlier work
# [3] = test system: U-937 monocyte cells / HAEC; assay: Monocyte (U-937) adhesion to HAEC cells; type: cell-based, human; details: HAEC pre-incubated 5 or 10 μM 24 h, 25 mM glucose 4 h; FIG. 5
# Description: HAEC cells proliferated to confluence in a 24 well microplate were pre-incubated with CS and FS (5 or 10 μM each) for 24 hours and stimulated with 25 mM glucose for 4 hours. The cell layer was washed with Hanks solution, and then a suspension (1×10^6/mL, 200 μL) of U-937 monocyte cells (purchased from ATCC) was added, and the mixture was incubated at 37° C. for 30 minutes. After washing again, the cells were fixed with 1% para-formaldehyde and the number of U-937 cells attached onto HAEC was counted under a microscope (20 fields). The experiment was performed 3 times and the results are shown as an average value thereof. An experiment using fluorescence-labeled U-937 cells was also performed. To be specific, U-937 cells were incubated (37° C., 1 hour) in the presence of 10 μM 2′,7′-bis(2-carboxyethyl)-5(6)-carboxyfluorescein acetoxymethylester (BCECF-AM, Molecular Probes) and washed by centrifugation. Fluorescence-labeled U-937 cells (1×10^6/mL) were added to HAEC cells, and the mixture was incubated at 37° C. for 1 hour. The floating U-937 cells were removed, the plate was washed with PBS buffer and treated with 1% Triton X for 2 hours. The fluorescence amount of the attached cells was quantified (Ex. 503 nm, Em. 525 nm) using a fluorescence plate reader (Bio-Rad, Fluoromark).
# NF-κB (p65) = assay: Activation of NF-κB (nuclear translocation of p65) in HAEC stimulated with high glucose; type: cell-based, human; details: pre-treatment 5 and 10 μM 24 h, 25 mM glucose 2 h, FIG. 1
# Description: In the present invention, the term “suppression of NF-κB activation” means suppression of the translocation of NF-κB into the nucleus. The suppression of the translocation of NF-κB into the nucleus can be confirmed by the method described in Example 1. To be specific, a test substance is added to a culture medium of human aortic endothelial cells, the cells are incubated for a predetermined time, the nucleus is extracted from the aforementioned cells stimulated with glucose, and activated NF-κB (p65) translocated into the nucleus is detected. Using the cells before glucose stimulation, wherein NF-κB is not activated, as a negative control and the cells stimulated with glucose and free of addition of a test substance as a positive control, when the detection level of the aforementioned p65 is closer to the negative control than to the positive control, NF-κB activation is evaluated to have been suppressed.
# Human aortic endothelial cells (HAEC) were purchased from Clonetics Corp, and the cells cultured for 3-4 passages (37° C., under 5% carbon dioxide gas atmosphere) were used for the experiment. […] Nucleus was extracted from the cells using Nuclear Extract Kit (Active Motif), and then the activated NF-κB (p65) translocated into the nucleus was detected by TransAM NF-κB p65 Kit (Active Motif).
# MCP-1 mRNA = MCP-1 mRNA expression in HAEC by real-time PCR; type: cell-based, human; details: 10 μM 24 h, 25 mM glucose 3 h, GAPDH internal standard, FIG. 3B
# Description: as §1, §2, §3, §4, §5, §6
# U-937 cells / HAEC = assay: Migration capability of monocyte (U-937), Transwell system with HAEC; type: cell-based, human; details: HAEC pre-incubated 5 or 10 μM 24 h, 25 mM glucose 4 h; FIG. 7
# Description: The migration capability of monocyte was measured using the Transwell system (pore size 3 μm; BD Biosciences). HAEC cultured on a transwell placed in a 24 well microplate was pre-incubated with 5 or 10 μM serotonin derivative for 24 hours, and stimulated with 25 mM glucose for 4 hours. 200 μL of U-937 cell suspension (10^6 cells/mL) was added to the transwell and the cells were incubated as-is at 37° C. for 2 hours. The number of cells migrated to the lower chamber of the transwell through the membrane was counted under a microscope (20 fields). The experiment was repeated three times, and the results are shown as an average value thereof. An experiment using fluorescence-labeled U-937 cells was also performed. BCECF-AM-labeled U-937 cells were plated in the upper chamber of the transwell and incubated at 37° C. for 2 hours. The cells migrated to the lower chamber through the membrane were collected in 1 mL of PBS buffer and treated with 1% Triton X for 2 hours. The fluorescence derived from the migrated cells was quantified (Ex. 503 nm, Em. 525 nm) using a fluorescence plate reader (Bio-Rad, Fluoromark).
# VCAM-1 = VCAM-1 protein expression on HAEC cell membrane (immunostaining); type: cell-based, human; details: 0.1-10 μM 24 h, 25 mM glucose 4 h, FIG. 4A
# Description: as §7
Compound,condition (chronic inflammation in the intestine) of the IBD model [1],expression amount of VCAM-1 mRNA (VCAM-1 mRNA),MCP-1 secretion into the medium (MCP-1),"concentration inhibiting production of TNF-α, IL-1α, IL-1β and IL-6 at a transcription level [2] [µM]",number of U-937 cells attached onto HAEC (cell count) [3],nuclear translocation of p65 (activation of NF-κB) (NF-κB (p65)),expression amount of MCP-1 mRNA (MCP-1 mRNA),number of U-937 cells migrated into subendothelium space (cell count) (U-937 cells / HAEC),VCAM-1 expression on the cell membrane (VCAM-1)
C[C@]12C=CC(=O)C=C1CC[C@@H]1[C@@H]2[C@@H](O)C[C@@]2(C)[C@H]1CC[C@]2(O)C(=O)CO [prednisolone],can be improved,–,–,–,–,–,–,–,–
"O=C(/C=C/c1ccc(O)cc1)NCCc1c[nH]c2ccc(O)cc12 [CS, N-(p-coumaroyl)serotonin]",–,significantly suppressed the increase,suppressed the induction of their expressions in a dose-dependent manner,≥ 50,decreased the number of attached cells in a serotonin derivative dose-dependent manner,significantly suppressed,significantly suppressed the increase,significantly decreased,suppressed the induction of their expressions in a dose-dependent manner
